The assay deals with T1, α-glucosidase GAM1p (Schwanniomyces occidentalis, UniProt Q401B1, S845A).
T1 construct: gene GAM1; full-length gene with own signal peptide of 22 residues (960 aa precursor), no tag (native stop codon), AOX1 promoter vector pIB4, secreted by Komagataella phaffii GS115; glycosylated, about 143 kDa; concentrated on 50-kDa membrane
Briefly: HPLC-PAD, MS and NMR of glucosylated products. It counts as biochemical. The settings on record: glucosyl acceptor; 20 mM piceid, 300 g/L maltose as donor, 20% DMSO, sodium acetate pH 4.5, 37 °C.

T1 sequence (Q401B1 entry or part of it S845A): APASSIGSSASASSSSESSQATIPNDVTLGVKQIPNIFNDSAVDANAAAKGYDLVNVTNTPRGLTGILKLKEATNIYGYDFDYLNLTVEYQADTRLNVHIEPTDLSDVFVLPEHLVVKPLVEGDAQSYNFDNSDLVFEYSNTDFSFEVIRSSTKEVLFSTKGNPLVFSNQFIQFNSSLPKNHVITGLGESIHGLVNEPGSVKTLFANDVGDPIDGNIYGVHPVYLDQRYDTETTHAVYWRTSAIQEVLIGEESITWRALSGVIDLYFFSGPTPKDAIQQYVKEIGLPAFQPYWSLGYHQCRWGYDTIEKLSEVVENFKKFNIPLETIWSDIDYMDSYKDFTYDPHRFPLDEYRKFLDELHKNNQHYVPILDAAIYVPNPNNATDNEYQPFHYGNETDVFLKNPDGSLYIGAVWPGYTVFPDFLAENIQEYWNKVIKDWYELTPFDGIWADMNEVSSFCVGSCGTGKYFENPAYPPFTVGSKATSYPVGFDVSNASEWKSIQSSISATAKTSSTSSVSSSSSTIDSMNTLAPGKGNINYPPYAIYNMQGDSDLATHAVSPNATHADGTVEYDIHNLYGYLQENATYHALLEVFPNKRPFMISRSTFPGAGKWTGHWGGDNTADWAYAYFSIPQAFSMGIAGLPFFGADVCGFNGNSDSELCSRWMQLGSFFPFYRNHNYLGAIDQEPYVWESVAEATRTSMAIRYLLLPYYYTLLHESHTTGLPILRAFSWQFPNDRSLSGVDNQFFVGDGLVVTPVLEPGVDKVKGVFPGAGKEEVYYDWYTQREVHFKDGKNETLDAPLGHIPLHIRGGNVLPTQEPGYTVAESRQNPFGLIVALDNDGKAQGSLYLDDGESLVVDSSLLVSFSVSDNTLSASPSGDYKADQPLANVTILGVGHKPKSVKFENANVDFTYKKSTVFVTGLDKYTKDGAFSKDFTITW

Regarding `OC[C@H]1O[C@@H](Oc2cc(O)cc(/C=C/c3ccc(O)cc3)c2)[C@H](O)[C@@H](O)[C@@H]1O` (mixture of isomers) [piceid], the “HPLC-PAD, MS and NMR of glucosylated products” value is given as “GAM1p was only able to glycosylate piceid (polydatin)”.

For the origin of these results see publication PMC11330417, “Insights into the transglucosylation activity of α-glucosidase from Schwanniomyces occidentalis” (Applied Microbiology and Biotechnology, 2024).
